{"source": "patent US20200223848A1", "about": "“DEGRADATION AGENT USING AUTOPHAGIC MECHANISM OF DAMAGED MITOCHONDRIA” (TOHOKU UNIVERSITY, priority 2017, published 2020)", "type_in_all_cases": "cell-based", "key": {"HeLa cells": {"tested_on": "HeLa cells", "test": "Cytoprotective effect against mitochondrial injury induced by uncoupler CCCP (Hoechst33342 nuclear staining, DNA fragmentation, cell viability)", "from_the_text": "Assessment Method for Cytoprotective Effect of Compound of Example 3, (R)-2-Acetylamino-3-[2-amino-9-(4-fluoro-benzyl)-6-oxo-6,9-dihydro-1H-purin-8-ylsulfanyl]-N-{3-[2-(2-{3-[2-oxo-2-(2-phenyl-1H-indol-3-yl)-acetylamino]-propoxy}-ethoxy)-ethoxy]-propyl}-propionamide (Indole-FBn), Against Mitochondrial Injury, and Confirmation of Inhibition of Cytoprotective Effect with Autophagy Inhibitor (Bafilomycin A1: Baf A1)\nCell Viability under Condition of Treating Cells with Indole-FBn and CCCP (Test Group):\nHeLa cells seeded in Dulbecco's Modified Eagle Medium (DMEM) in a 96-well plate at 30,000 cells/well were incubated under the conditions of 37° C./5% CO2 overnight. […]\nSubsequently, the uncoupler CCCP was added at a final concentration of 10 μM, followed by further incubation for 2 hours to induce mitochondrial injury. Cells in each of which DNA fragmentation was found in the nucleus were judged to be dead cells, and cell viability was calculated by the following equation. […]\nHeLa cells seeded in Dulbecco's Modified Eagle Medium (DMEM) in a 96-well plate at 30,000 cells/well were incubated under the conditions of 37° C./5% CO2 for 1 day, and then subjected to nuclear staining by Hoechst33342 staining. […] Cells in each of which DNA fragmentation was found in the nucleus were judged to be dead cells, and cell viability was calculated. […]"}, "[1]": {"tested_on": "HeLa cells stably expressing EmGFP-HaloTag-Omp25", "test": "Living cell imaging of degradation of injured mitochondria (EmGFP-HaloTag-Omp25 green and MitoTracker Red CMXRos red fluorescence)", "protocol": "HeLa cells cultured in Dulbecco's Modified Eagle Medium (DMEM) were transfected with the plasmid pEmGFP-HaloTag-Omp25 containing a gene sequence encoding the EmGFP-HaloTag-Omp25 fusion protein localized on the mitochondrial outer membrane, and were allowed to stably express the protein. As a result, mitochondria in the cells were able to be observed using green fluorescence as an indicator.\nA red fluorescent dye MitoTracker Red CMXRos (Thermo Fisher Scientific, M7513) was added thereto, followed by incubation for 30 minutes to stain mitochondria. At this stage, the mitochondria in the cells had been stained in two colors by EmGFP-HaloTag-Omp25 and MitoTracker Red CMXRos. Subsequently, MitoTracker Red CMXRos in the medium was removed by medium exchange. Mitochondria to be biosynthesized after this operation can only be detected with green fluorescence, and are not to be detected with red fluorescence. This difference was utilized to observe the degradation process of mitochondria by living cell imaging.\nThe cells were divided into two groups. Indole-FBn was added to an experimental group at a final concentration of […] was not added to a control group. In order to observe living cells at a fixed point for a long period of time, a culture vessel was fixed to a stage-top incubator (37° C., 5% CO2) mounted on a fluorescence microscope (KEYENCE, BX9000), and all the subsequent operations were performed on the microscope. […]\nThe signals of EmGFP-HaloTag-Omp25 and MitoTracker Red CMXRos at the time of the addition of Indole-FBn (−10 h), the time of the addition of CCCP (0 h), 2 hours after the addition of CCCP (+2 h), […] after the addition of CCCP (+8 h), and 16 hours after the addition of CCCP (+16 h) are shown in FIG. 6 and FIG. 7. In the graphs, the intensities of the signals of EmGFP-HaloTag-Omp25 (green fluorescence) and MitoTracker Red CMXRos (red fluorescence) in the photographs shown in FIG. 6 are shown as relative values with the respective intensities at −10 h being defined as 1. […]"}, "Detroit532 cells": {"tested_on": "Detroit532 cells", "test": "JC-1 staining of mitochondrial membrane potential", "conditions": "Down syndrome patient foreskin-derived fibroblasts; 10 μM, incubation for 3 days", "protocol": "Detroit532 cells, which were Down syndrome patient foreskin-derived fibroblasts, were cultured in Eagle's Minimum Essential Medium. The cells were divided into two groups. A compound (Indole-FBn) was added to an experimental group at a final concentration of 10 μM, and was not added to a control group, followed by incubation for 3 days (37° C., 5% CO2). The cells of each group were each stained with JC-1 (abcam, 113850).\nThe JC-1 dye accumulates in mitochondria having a normal membrane potential to emit red fluorescence. Meanwhile, its localization is lost from mitochondria having an abnormal membrane potential and green fluorescence is emitted. That is, in a JC-1 staining image, a lower “green/red fluorescence intensity ratio” means that the membrane potential of mitochondria is kept more normal. Staining images were analyzed with ImageJ (National Institute of Health), and the “green/red fluorescence intensity ratio” is shown as a graph. Error bars represent standard deviations obtained from data from three independent experiments."}}, "data": [{"smiles": "CC(=O)N[C@@H](CSc1nc2c(=O)[nH]c(N)nc2n1Cc1ccc(F)cc1)C(=O)NCCCOCCOCCOCCCNC(=O)C(=O)c1c(-c2ccccc2)[nH]c2ccccc12", "note": "[Indole-FBn, (R)-2-Acetylamino-3-[2-amino-9-(4-fluoro-benzyl)-6-oxo-6,9-dihydro-1H-purin-8-ylsulfanyl]-N-{3-[2-(2-{3-[2-oxo-2-(2-phenyl-1H-indol-3-yl)-acetylamino]-propoxy}-ethoxy)-ethoxy]-propyl}-propionamide]", "values": [{"measurement": "cytoprotective effect under the CCCP-treated condition in coexistence of autophagy inhibitor Baf A1", "setting": "HeLa cells; Baf A1 200 nM added 2 hours before Indole-FBn treatment, CCCP 10 μM", "value": "significantly inhibited"}, {"measurement": "cell death due to mitochondrial injury (cell viability)", "setting": "HeLa cells; Indole-FBn 1 μM for 10 hours, then CCCP 10 μM for 2 hours, versus non-Indole-FBn-treated control", "value": "significantly suppressed cell death"}, {"measurement": "green and red signal intensities after the addition of CCCP", "setting": "[1]; Indole-FBn-treated group, 2 h, 8 h after CCCP, relative to intensities at -10 h defined as 1", "value": "reduced"}, {"measurement": "removal of injured mitochondria and production of new mitochondria", "setting": "[1]; living cell imaging experiment, overall conclusion", "value": "promoted both the removal of injured mitochondria and the production of new mitochondria"}, {"measurement": "green fluorescence intensity, comparison of 8 hours and 16 hours after the addition of CCCP", "setting": "[1]; only in the Indole-FBn-treated group, indicates production of new mitochondria", "value": "increased"}, {"measurement": "quality of mitochondria (JC-1 green/red fluorescence intensity ratio, membrane potential)", "setting": "Detroit532 cells", "value": "significantly improved"}]}]}
